Test results as given in patent publication US5219884A, “Immunosuppressant” (Taito Co., Ltd., priority 1990, dated 1993).
Like-named read-outs stand apart in the source and are kept apart here.

How the values were obtained:
[1] = system: IL2-dependent mouse cell line CTLL-2; experiment: suppression of IL-2 induced 3H-thymidine incorporation of CTLL-2; assay type: cell-based; conditions: for inhibition at 0.01 µg/mL / inhibition at 0.1 µg/mL / inhibition at 1 µg/mL / inhibition at 10 µg/mL: Mus musculus; for inhibition at 0.01 µg/mL / inhibition at 0.1 µg/mL / inhibition at 10 µg/mL: read-out: Suppression
Method: IL2-dependent mouse cell line CTLL-2 cells were suspended in the RPMI1640 culture medium supplemented with 30% FCS to a concentration of 2×10^5 cells/ml. The suspension (50 μl) and 50 μl of concanavalin A-stimulated rat spleen cell culture supernatants containing IL2 were added to each well of 96-well microculture plates in which 100 μl of the test substance had been placed. After culturing at 37° C. in an atmosphere of 5% carbon dioxide for 20, 44, or 68 hours, 0.5 μCi/well of ^3 H-thymidine was added, and cultured for 4 hours under the same conditions. After termination of the culture, the cells were harvested by a cell harvester, and the radioactivity incorporated into the cells was measured by a liquid scintillation counter.

[2] = in vitro; assay type: cell-based, human; conditions: human, read-out: Suppression
Method: (§1) Cytotoxicity to human tumor cell lines was examined as follows:
(§2) Cells of human cell lines, K562, MOLT4, U937, HL60, KATOIII, KB, PC-6, PC-14 and CCRF-CEM were separately suspended to the concentration of 2×10^5 cells/ml in the RPMI1640 culture medium supplemented with 20% FCS. Fifty μl of this suspension was added to each well of 96-well microculture plates to which 50 μl of the test solution had been added. After culturing at 37° C. in an atmosphere of 5% carbon dioxide for 72 hours, the absorbancy at 550 nm was measured in the same way as the colorimetry using MTT in Experimental Example 1, and the percent suppression was calculated in the same manner as in Experimental Example 14, which was used as the index of cytotoxicity.

[3] = system: CCRF-CEM; experiment: in vitro; assay type: cell-based, human
Method: as §1, §2

[4] = system: HL60; experiment: in vitro; assay type: cell-based, human
Method: as §1, §2

[5] = system: K562; experiment: in vitro; assay type: cell-based, human
Method: as §1, §2

[6] = system: KB; experiment: in vitro; assay type: cell-based, human
Method: as §1, §2

[7] = system: PC-14; experiment: in vitro; assay type: cell-based, human
Method: as §1, §2

[8] = system: U937; experiment: in vitro; assay type: cell-based, human
Method: as §1, §2

[9] = cytotoxicity to tumor cell line MOLT4; assay type: cell-based, human; conditions: human, molt4 cells, read-out: Suppression
Method: as §1, §2

[10] = system: MOLT4; experiment: cytotoxicity to tumor cell line MOLT4; assay type: cell-based, human
Method: as §1, §2

## CCCCCCC(=O)CCCCCC/C=C/CC1OC(=O)C(N)(CO)C1O (stereo not drawn) [Example 4]
[1]; 24 hrs, 0.01 μg/ml
  3H-thymidine uptake: 5907 cpm
[1]; 24 hrs, 0.1 μg/ml
  3H-thymidine uptake: 4240 cpm
[1]; 24 hrs, 1 μg/ml
  3H-thymidine uptake: 5400 cpm
[1]; 24 hrs, 10 μg/ml
  3H-thymidine uptake: 2602 cpm
[1]; 48 hrs, 0.01 μg/ml
  3H-thymidine uptake: 21930 cpm
[1]; 48 hrs, 0.1 μg/ml
  3H-thymidine uptake: 9202 cpm
[1]; 48 hrs, 1 μg/ml
  3H-thymidine uptake: 7202 cpm
[1]; 48 hrs, 10 μg/ml
  3H-thymidine uptake: 7465 cpm
[1]; 72 hrs, 0.01 μg/ml, control 78515 cpm
  3H-thymidine uptake: 69355 cpm
[1]; 72 hrs, 0.1 μg/ml, control 78515 cpm
  3H-thymidine uptake: 16705 cpm
[1]; 72 hrs, 1 μg/ml, control 78515 cpm
  3H-thymidine uptake: 4088 cpm
[1]; 72 hrs, 10 μg/ml, control 78515 cpm
  3H-thymidine uptake: 11806 cpm
[1]; CTLL-2, 48 h
  inhibition at 0.01 µg/mL: 13.3%
[1]; CTLL-2, 24 hrs, 0.01 μg/ml
  inhibition at 0.01 µg/mL: 11.8%
[1]; CTLL-2, 24 hrs, 0.1 μg/ml
  inhibition at 0.1 µg/mL: 37.5%
[1]; CTLL-2, 24 hrs, 1 μg/ml
  inhibition at 1 µg/mL: 19.6%
[1]; CTLL-2, 24 hrs, 10 μg/ml
  inhibition at 10 µg/mL: 62.7%
[1]; CTLL-2, 48 hrs, 0.1 μg/ml
  inhibition at 0.1 µg/mL: 64.6%
[1]; CTLL-2, 48 hrs, 1 μg/ml
  inhibition at 1 µg/mL: 72.7%
[1]; CTLL-2, 48 hrs, 10 μg/ml
  inhibition at 10 µg/mL: 71.6%
[1]; CTLL-2, 72 hrs, 0.01 μg/ml, control 78515 cpm
  inhibition at 0.01 µg/mL: 11.8%
[1]; CTLL-2, 72 hrs, 0.1 μg/ml, control 78515 cpm
  inhibition at 0.1 µg/mL: 79.4%
[1]; CTLL-2, 72 hrs, 1 μg/ml, control 78515 cpm
  inhibition at 1 µg/mL: 95.6%
[1]; CTLL-2, 72 hrs, 10 μg/ml, control 78515 cpm
  inhibition at 10 µg/mL: 85.7%
[2]; ccrf-cem cells, 0.1 μg/ml
  cytotoxicity at 72 h: 11.3%
[2]; ccrf-cem cells, 1.0 μg/ml
  cytotoxicity at 72 h: 12.6%
[2]; ccrf-cem cells, 10.0 μg/ml
  cytotoxicity at 72 h: 37.4%
[2]; ccrf-cem cells, 100.0 μg/ml
  cytotoxicity at 72 h: 99.4%
[2]; hl60 cells, 0.1 μg/ml
  cytotoxicity at 72 h: 23.4%
[2]; hl60 cells, 1.0 μg/ml
  cytotoxicity at 72 h: 13.3%
[2]; hl60 cells, 10.0 μg/ml
  cytotoxicity at 72 h: 21.1%
[2]; hl60 cells, 100.0 μg/ml
  cytotoxicity at 72 h: 97.7%
[2]; k562 cells, 0.1 μg/ml
  cytotoxicity at 72 h: 14.7%
[2]; k562 cells, 1.0 μg/ml
  cytotoxicity at 72 h: 8.3%
[2]; k562 cells, 10.0 μg/ml
  cytotoxicity at 72 h: 14.5%
[2]; k562 cells, 100.0 μg/ml
  cytotoxicity at 72 h: 98.9%
[2]; katoiii cells, 0.1 μg/ml
  cytotoxicity at 72 h: 5.3%
[2]; katoiii cells, 1.0 μg/ml
  cytotoxicity at 72 h: 6.7%
[2]; katoiii cells, 10.0 μg/ml
  cytotoxicity at 72 h: 25.8%
[2]; katoiii cells, 100.0 μg/ml
  cytotoxicity at 72 h: 97.9%
[2]; kb cells, 0.1 μg/ml
  cytotoxicity at 72 h: 19%
[2]; kb cells, 1.0 μg/ml
  cytotoxicity at 72 h: 2.5%
[2]; kb cells, 10.0 μg/ml
  cytotoxicity at 72 h: 33.5%
[2]; kb cells, 100.0 μg/ml
  cytotoxicity at 72 h: 99%
[2]; pc-14 cells, 0.1 μg/ml
  cytotoxicity at 72 h: 0%
[2]; pc-14 cells, 1.0 μg/ml
  cytotoxicity at 72 h: 0%
[2]; pc-14 cells, 10.0 μg/ml
  cytotoxicity at 72 h: 0%
[2]; pc-14 cells, 100.0 μg/ml
  cytotoxicity at 72 h: 95.3%
[2]; u937 cells, 0.1 μg/ml
  cytotoxicity at 72 h: 16.1%
[2]; u937 cells, 1.0 μg/ml
  cytotoxicity at 72 h: 0%
[2]; u937 cells, 10.0 μg/ml
  cytotoxicity at 72 h: 2.9%
[2]; u937 cells, 100.0 μg/ml
  cytotoxicity at 72 h: 99%
[3]; 0.1 μg/ml
  Absorbancy: 0.564
[3]; 1.0 μg/ml
  Absorbancy: 0.556
[3]; 10.0 μg/ml
  Absorbancy: 0.389
[3]; 100.0 μg/ml
  Absorbancy: 0.004
[4]; 0.1 μg/ml
  Absorbancy: 0.265
[4]; 1.0 μg/ml
  Absorbancy: 0.300
[4]; 10.0 μg/ml
  Absorbancy: 0.273
[4]; 100.0 μg/ml
  Absorbancy: 0.008
[5]; 0.1 μg/ml
  Absorbancy: 0.524
[5]; 1.0 μg/ml
  Absorbancy: 0.563
[5]; 10.0 μg/ml
  Absorbancy: 0.525
[5]; 100.0 μg/ml
  Absorbancy: 0.007
[6]; 0.1 μg/ml
  Absorbancy: 0.884
[6]; 1.0 μg/ml
  Absorbancy: 1.065
[6]; 10.0 μg/ml
  Absorbancy: 0.726
[6]; 100.0 μg/ml
  Absorbancy: 0.012
[7]; 0.1 μg/ml
  Absorbancy: 0.656
[7]; 1.0 μg/ml
  Absorbancy: 0.679
[7]; 10.0 μg/ml
  Absorbancy: 0.657
[7]; 100.0 μg/ml
  Absorbancy: 0.030
[8]; 0.1 μg/ml
  Absorbancy: 0.313
[8]; 1.0 μg/ml
  Absorbancy: 0.384
[8]; 10.0 μg/ml
  Absorbancy: 0.362
[8]; 100.0 μg/ml
  Absorbancy: 0.004
[9]; 0.1 μg/ml
  cytotoxicity at 72 h: 14%
[9]; 1.0 μg/ml
  cytotoxicity at 72 h: 14.2%
[9]; 10.0 μg/ml
  cytotoxicity at 72 h: 22.8%
[9]; 100.0 μg/ml
  cytotoxicity at 72 h: 97.1%
[10]; 0.1 μg/ml
  Absorbancy: 0.351
[10]; 1.0 μg/ml
  Absorbancy: 0.350
[10]; 10.0 μg/ml
  Absorbancy: 0.315
[10]; 100.0 μg/ml
  Absorbancy: 0.012
